Read-outs that look alike come from different tables or passages of the source.
How the values were obtained:
human 11β-HSD1 = molecular target: T1, human 11β-HSD1 (Homo sapiens, UniProt P28845); test: Cellular in vitro 11β-HSD1 enzyme inhibition assay (SPA, HEK293/11β-HSD1 cells); assay type: cell-based
T1 construct: stably transfected with a construct containing the full-length gene coding for the human 11β-HSD1 enzyme; expressed in transfected cells; host or cells: HEK293 (stably transfected, HEK293/11β-HSD1)
T1 sequence (P28845 whole entry): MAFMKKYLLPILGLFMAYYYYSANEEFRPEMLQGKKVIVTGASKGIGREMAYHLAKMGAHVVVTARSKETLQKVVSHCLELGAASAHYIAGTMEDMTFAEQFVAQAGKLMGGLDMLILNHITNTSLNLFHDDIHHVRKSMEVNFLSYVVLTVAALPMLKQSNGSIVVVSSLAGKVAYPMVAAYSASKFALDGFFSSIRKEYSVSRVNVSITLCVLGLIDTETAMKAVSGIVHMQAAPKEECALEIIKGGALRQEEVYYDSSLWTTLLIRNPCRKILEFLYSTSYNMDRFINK
Description: Compounds were assessed by a Scintillation Proximity Assay (SPA) performed according to the following protocol:
HEK293 cells were stably transfected with a construct containing the full-length gene coding for the human 11β-HSD1 enzyme to create HEK293/11β-HSD1 cells. Cells were routinely cultured in DMEM containing 10% calf foetal serum, 1% glutamine, and 1% penicillin and streptomycin. Prior to assay, cells were plated at 2×10^4 cells/well in 96-well poly-D-Lys coated flat-bottomed microplates and incubated in 5% CO2, 95% O2 at 37° C. for 24 hours. The media in each well was removed immediately before assay.
Compounds to be tested were dissolved in DMSO at 10 mM and serially diluted into water containing 10% DMSO. Diluted compounds at a volume of 10 μL were added to wells of a 96-well V-bottomed microplate. A solution of DMEM, 1% glutamine, 1% penicillin and streptomycin, and 22 nM tritiated cortisone was prepared and 90 μL added to each well of the assay plate. This solution (100 μL/well) was transferred to the plate containing the cells. The plate was then incubated in 5% CO2, 95% O2 at 37° C. for 2 hours.
Following this incubation, 50 μL of the assay solution was transferred to each well of a 96-well scintillation microplate. A mixture consisting of anti-mouse YSi SPA beads, pre-mixed with anti-cortisol antibody in assay buffer (50 mM Tris.HCl, pH 7.0; 300 mM NaCl; 1 mM EDTA, 5% glycerol) was prepared and 50 μL added to each well of the scintillation microplate. An adhesive strip was applied to the microplate and the plate gently shaken for at least 2 hours at room temperature, and then spun briefly on a low speed centrifuge. The plate was read on a scintillation counter suitable for 96-well microplates. For the calculation of percentage inhibition, a series of wells were added to the plate that represented the assay maximum and the assay minimum: one set that contained substrate without cells (minimum) and another set that contained substrate and cells without any compound (maximum).
The calculation of median inhibitory concentration (IC50) values for the compounds was performed using GraphPad Prism® software. Dose-response curves for each compound were plotted as fractional inhibition and data fitted to the four parameter logistic equation.

human 11β-HSD2 = molecular target: T2, human 11β-HSD2 (Homo sapiens, UniProt P80365); test: Cellular in vitro 11β-HSD2 enzyme inhibition assay (CHO cells); assay type: cell-based; conditions: CHO cells transfected with human 11β-HSD2
T2 construct: CHO cells stably transfected with the full-length gene coding for human 11β-HSD2 were used; expressed in transfected cells; host or cells: CHO (stably transfected)
T2 sequence (P80365 1-405): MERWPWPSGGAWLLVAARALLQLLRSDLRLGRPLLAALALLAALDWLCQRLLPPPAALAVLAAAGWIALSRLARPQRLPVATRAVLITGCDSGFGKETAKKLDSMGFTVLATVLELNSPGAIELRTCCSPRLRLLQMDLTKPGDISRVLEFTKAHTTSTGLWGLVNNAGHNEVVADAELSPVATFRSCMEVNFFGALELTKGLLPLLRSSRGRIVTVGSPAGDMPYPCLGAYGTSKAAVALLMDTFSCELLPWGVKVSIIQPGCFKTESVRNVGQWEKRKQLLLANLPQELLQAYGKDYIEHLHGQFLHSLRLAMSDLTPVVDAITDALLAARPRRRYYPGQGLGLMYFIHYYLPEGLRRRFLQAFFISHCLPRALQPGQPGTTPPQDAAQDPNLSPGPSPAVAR
Description: For measurement of inhibition of 11β-HSD2, CHO cells stably transfected with the full-length gene coding for human 11β-HSD2 were used. Assays were carried out in 96-well microplates containing 1×10^5 cells/well. Controls and compounds were plated as above, so that the final DMSO concentration in each well was 1%. To initiate the assay, 90 μL of a solution of HAMS F-12 medium containing 1% glutamine, 1% penicillin and streptomycin, and 22 nM tritiated cortisol was added to each well of the assay plate. The plate was then incubated in 5% CO2, 95% O2 at 37° C. for 16 hours.
The assay solutions were transferred to glass tubes and […] added to each tube. Each tube was vortexed thoroughly and the upper layer containing the tritiated steroid transferred to a fresh glass tube. The solvent was evaporated by placing the tubes in a heating block at 65° C. under a stream of nitrogen gas. 20 μL ethanol was added to each of the dried samples and vortexed briefly. Each sample was applied to a silica TLC plate and the plate dried. The plate was placed vertically in a glass tank containing 92% chloroform: 8% ethanol and the solvent allowed to rise up the plate. The plate was dried, placed in an imaging cassette, and overlayed with a tritium imaging plate for 1-2 days. The amount of enzyme inhibition in each sample was determined by measuring the intensity of the substrate and product spots using a phospho-imager. IC50 values for inhibitors were determined as described above for 11β-HSD1.

[1] = In vitro human liver microsomal stability assay; assay type: in vitro ADME; conditions: human liver microsomes
Description: To predict in vivo metabolism of compounds, the stability of compounds incubated with human liver microsomes in vitro was determined. Human liver microsome preparations were stored at −80° C. and thawed on ice prior to use. The thawed microsomes were diluted to a concentration of 2 mg/mL in 50 mM sodium phosphate, pH 7.4. Reference and test compounds were prepared as 10 mM stocks in 100% DMSO and diluted to 1 mM in acetonitrile before use. Each compound was tested in triplicate as follows:
4 μL of test or reference compound was added to a well of a 24-well microplate and 0.5 mL of 4 mM NADPH added. The plate was then transferred to a shaker for 10 minutes at room temperature. 30 μL of the compound/NADPH solution was transferred to the well of a 96-well microplate and incubated at 37° C. for 5 minutes. 30 μL of human liver microsomes (pre-incubated at 37° C. for 5 minutes) was added to the well containing the compound/NADPH solution and the plate incubated for the selected period of time (typically 0 or 30 minutes). The reaction was stopped by adding 60 μL of ice cold […] trichloroacetic acid. The plate was centrifuged at 1000 rpm for 5 minutes at room temperature and the supernatant transferred to the well of a new 96-well V-bottomed microplate for mass spectrometric analysis.
(§1) Samples were analyzed by TSQ Quantum Discovery Tandem Mass Spectrometer and Surveyor Liquid Chromatogram (Thermo, Hemel-Hempstead, UK). 10 μL of each sample was injected in a mobile phase consisting of 60%:40% methanol:5 mM ammonium acetate at a flow rate of 0.5 mL/minute. The column used was a BDS hypersil, C18, 50×2.1 mm with a 5 μm particle size.
(§2) Each compound was tuned with a spray voltage of 3000 V and a capillary temperature of 300° C. and values for tube lens, CID and product ions were determined.
The peak area for each compound was measured in triplicate for the 0 and 30 minute samples and the average of each was reported. The percentage remaining after 30 minutes was calculated as the average peak area of the sample after 30 minutes divided by the average peak area at 0 minutes. The RSD was 10% or lower for each compound.

[2] = Oral exposure and tissue distribution in rats; assay type: in vivo, male Sprague Dawley rats; conditions: rat, oral 10 mg/kg; for Cmax: male, Sprague Dawley, plasma, read-out: Plasma Cmax (maximum plasma concentration)
Description: The circulating plasma levels and tissue distribution of certain compounds were determined following oral administration of compound (10 mg/kg) to male Sprague Dawley rats. Rats (n=3 per group) were culled at 1, 4 and 6 hours post dosing and trunk blood and tissues (liver, adipose and brain) excised. Blood samples at 30 minutes and 2 hours post dosing were taken by tail nick from the 4 hour and 6 hour rats respectively.
Compound was triple extracted from plasma (prepared from blood by a high speed centrifugation step) spiked with 1 μg of a standard compound using ethyl acetate. Extracts were dried under nitrogen and re-suspended in 60% methanol/40% ammonium acetate (5 mM).
A known weight of tissue was homogenized in 3 volumes Krebs buffer. Compound was triple extracted with ethyl acetate from the supernatant of a low speed spin spiked with 1 μg of a standard compound. Extracts were dried under nitrogen and re-suspended in 60% methanol/40% ammonium acetate (5 mM).
as §1, with “Samples from plasma and tissue” for “Samples”
as §2
The peak area for each compound and for the internal standard was determined and the concentration of compound per gram of tissue or mL of plasma was calculated by comparison of the peak area ratio to a standard curve.

[3] = HEK293, potency groups, read-out: IC50 for 11β-HSD1 (HEK293)
[4] = HEK293 cells transfected with human 11β-HSD1, first value in cell, read-out: IC50 for 11β-HSD1 (HEK293)
[5] = HEK293 cells, value marked * in brackets, read-out: IC50 for 11β-HSD1 (HEK293), (*) average of at least two individual experiments

O=C(c1csc(-c2cn[nH]c2)c1)N1C2CCC1CC(O)(c1ccccn1)C2 (stereo not shown) [XX-01]
IC50 (human 11β-HSD1; [3]): ≤ 0.1 µM | IC50 (human 11β-HSD1; [4]): 0.021 µM | IC50 (human 11β-HSD1; [5]): 0.028 µM | IC50 (human 11β-HSD2): > 10 µM | % Parent Remaining at 30 min [1]: +++ (61-100% +++) | Cmax [2]: > 1 µg/mL | Liver Cmax (maximum liver concentration) [2]: ++ (3001-5000 ++)

O=C(c1csc(-c2cn[nH]c2)c1)N1C2CCC1CC(F)(c1ncccc1Cl)C2 (stereo not shown) [XX-13, [3-(3-Chloro-pyridin-2-yl)-3-fluoro-8-aza-bicyclo[3.2.1]oct-8-yl]-[5-(1H-pyrazol-4-yl)-thiophen-3-yl]-methanone]
IC50 (human 11β-HSD1; [3]): ≤ 0.1 µM | IC50 (human 11β-HSD1; [4]): 0.031 µM | IC50 (human 11β-HSD2): > 10 µM | % Parent Remaining at 30 min [1]: ++ (31-60% ++)

N#CC1(c2ccccn2)CC2CCC(C1)N2C(=O)c1csc(-c2cn[nH]c2)c1 (stereo not shown) [XX-18]
IC50 (human 11β-HSD1; [3]): ≤ 0.1 µM | IC50 (human 11β-HSD1; [4]): 0.015 µM | IC50 (human 11β-HSD2): > 10 µM | % Parent Remaining at 30 min [1]: +++ (61-100% +++)

O=C(c1csc(-c2cn[nH]c2)c1)N1C2CCC1CC(O)(c1cnccn1)C2 (stereo not shown) [XX-24]
IC50 (human 11β-HSD1; [3]): ≤ 0.1 µM | IC50 (human 11β-HSD1; [4]): 0.037 µM | IC50 (human 11β-HSD2): > 10 µM | Cmax [2]: 0.501 to 1 µg/mL | Liver Cmax (maximum liver concentration) [2]: ++ (3001-5000 ++)

O=C(c1csc(-c2cn[nH]c2)c1)N1C2CCC1CC(O)(c1cscn1)C2 (stereo not shown) [XX-36]
IC50 (human 11β-HSD1; [3]): ≤ 0.1 µM | % Parent Remaining at 30 min [1]: +++ (61-100% +++) | Cmax [2]: > 1 µg/mL | Liver Cmax (maximum liver concentration) [2]: ++ (3001-5000 ++)

O=C(c1csc(-c2cn[nH]c2)c1)N1C2CCC1CC(F)(c1cccnn1)C2 (stereo not shown) [XX-43]
IC50 (human 11β-HSD1; [3]): ≤ 0.1 µM | IC50 (human 11β-HSD1; [4]): 0.047 µM | IC50 (human 11β-HSD1; [5]): 0.05 µM | IC50 (human 11β-HSD2): > 10 µM | % Parent Remaining at 30 min [1]: +++ (61-100% +++)

O=C(c1csc(-c2cn[nH]c2)c1)N1CCC(O)(c2ncccc2Cl)CC1 [YY-02]
IC50 (human 11β-HSD1; [3]): ≤ 0.1 µM | IC50 (human 11β-HSD1; [4]): 0.049 µM | IC50 (human 11β-HSD1; [5]): 0.041 µM | IC50 (human 11β-HSD2): > 10 µM | % Parent Remaining at 30 min [1]: ++ (31-60% ++) | Cmax [2]: > 1 µg/mL | Liver Cmax (maximum liver concentration) [2]: +++ (>5001 +++)

O=C(c1csc(-c2cn[nH]c2)c1)N1CCC(O)(c2ccncc2Cl)CC1 [YY-06]
IC50 (human 11β-HSD1; [3]): ≤ 0.1 µM | IC50 (human 11β-HSD1; [4]): 0.028 µM | IC50 (human 11β-HSD2): > 10 µM | % Parent Remaining at 30 min [1]: ++ (31-60% ++)

— patent US9834549B2, “3,3-disubstituted-(8-aza-bicyclo[3.2.1]OCT-8-yl)-[5-(1H-pyrazol-4-yl)-thiophen-3-yl]-methanones as inhibitors of 11 (β)-HSD1” (The University Of Edinburgh, priority 2010, dated 2017)
